{"source": "patent US12090225B2", "about": "(Avalyn Pharma Inc., priority 2018, dated 2024)", "key": {"interleukin-1β (IL-1β)": {"test_system": "interleukin-1β (IL-1β)", "test": "Therapeutic silica model: lung interleukin-1β", "format": "in vivo, C57BL/6 mice", "details": "silica mice", "protocol": "(§1) Briefly, acclimated 20-22 g female C57BL/6 mice were administered silica on day 1 by the intratracheal route. On the tenth day, treatment was initiated with either saline or nintedanib. […] Sham and silica control groups received saline either IN or PO. Five animals were enrolled into sham groups, 10 animals enrolled into each PO dose groups, and 13 animals were enrolled into each IN dosing group. […] Body weights were collected throughout the study, with lung weights at termination. Flexivent was performed to determine elastance (lung function; Table 59). Left lungs were extracted, stained as assessed for parenchymal collagen (Table 60) and α-smooth muscle actin (αSMA; Table 61), while right lungs were assessed for interleukin-1β (IL-1β; Table 62). Alpha-smooth muscle actin (αSMA) is a marker of myofibroblast, a key cell type present in fibrotic diseases, including IPF, and is required for production and deposition of collagen."}, "[1]": {"test": "Dynamic Vapour Sorption (DVS) hygroscopicity", "format": "physicochemical", "details": "for DVS mass uptake at 90% RH: 25° C., uptake from input material; for Hygroscopicity: DVS", "protocol": "Dynamic Vapour Sorption (DVS). Approximately, 10 mg of sample was placed into a mesh vapour sorption balance pan and loaded into a DVS-1 or DVS Advantage dynamic vapour sorption balance by Surface Measurement Systems. The sample was subjected to a ramping profile from 40-90% relative humidity (RH) at 10% increments, maintaining the sample at each step until a stable weight had been achieved (dm/dt 0.004%, minimum step length 30 minutes, maximum step length 500 minutes) at 25° C. After completion of the sorption cycle, the sample was dried using the same procedure to 0% RH and then a second sorption cycle back to 40% RH. Two cycles were performed. The weight change during the sorption/desorption cycles were plotted, allowing for the hygroscopic nature of the sample to be determined. XRPD analysis was then carried out on any solid retained."}, "[2]": {"test_system": "silica pulmonary fibrosis", "test": "Therapeutic silica pulmonary fibrosis model: lung function (elastance, Flexivent)", "format": "in vivo, C57BL/6 mice", "details": "silica mice", "quoted_text": "Sham and silica control groups received saline either IN or PO. Five animals were enrolled into sham groups, 10 animals enrolled into each PO dose groups, and 13 animals were enrolled into each IN dosing group. […] Body weights were collected throughout the study, with lung weights at termination. Flexivent was performed to determine elastance (lung function; Table 59). […] The ventilator determined the elastance of each lung as a measure of lung stiffness/fibrosis by inflating the lungs and assessing changes in flow and pressure."}, "parenchymal collagen": {"test_system": "parenchymal collagen", "test": "Therapeutic silica model: parenchymal collagen (Picrosirius Red)", "format": "in vivo, C57BL/6 mice", "details": "silica mice", "protocol": "as §1, with “[…] collagen was measured by Picrosirius Red (PSR) histopathological analysis. […] Due to the positive impact on other key fibrosis modulators (αSMA, IL-1β; Tables 61 and 62) and that silica-induced fibrosis was well-established prior to start of dosing, it” for “Alpha-smooth muscle actin (αSMA)”, “possible that extending the treatment time would ultimately impact parenchymal” for “a marker of myofibroblast, a key cell type present in fibrotic diseases, including IPF, and is required for production and deposition of”"}, "[3]": {"test": "Therapeutic bleomycin model: body weight gain, lung weight-to-body weight ratio, tolerability", "details": "bleomycin rats"}, "[4]": {"test_system": "α-smooth muscle actin (αSMA)", "test": "Therapeutic silica model: lung α-smooth muscle actin", "format": "in vivo, C57BL/6 mice", "details": "silica mice", "protocol": "as §1"}, "[5]": {"test_system": "bleomycin pulmonary fibrosis", "test": "Therapeutic bleomycin pulmonary fibrosis model: Ashcroft fibrosis score, hydroxyproline", "format": "in vivo, Sprague Dawley rats", "protocol": "Briefly, acclimated Sprague Dawley male rats (c.a. 253 grams at first dosing) were administered bleomycin on days 1, 2, 3 and 6 by the oropharyngeal (OP) route. On the eighth day, treatment was initiated with either saline or nintedanib. […] Ten animals were enrolled into each dosing group. […] All animals were euthanized on day 28d. Body weights were collected throughout the study, with lung weights at termination (Table 55). Left lungs were extracted and measured for hydroxyproline content, while […] were subjected to histology for Ashcroft fibrosis score determination (Table 56)."}, "[6]": {"test": "Allometric dose scaling from mouse and rat to human", "details": "for Predicted human half-life: Oral"}, "[7]": {"test": "Plasma and lung pharmacokinetics of nintedanib esylate, oral vs intratracheal aerosol", "format": "in vivo, C57BL/6 mice", "details": "for Lung Cmax / plasma AUC as fraction of the 100 mg/kg oral dose: mice"}, "[8]": {"test": "Therapeutic silica model: body and lung weights", "format": "in vivo, C57BL/6 mice", "details": "oral 30 mg/kg BID and inhaled (IN) 0.021-[…] QD nintedanib HBr", "protocol": "as §1, with “As expected, all mice administered silica lost weight from days 0 to 4. All silica administered mice began to recover from weight loss at around day 6” for “Alpha-smooth muscle actin (αSMA) is a marker of myofibroblast, a key cell type present in fibrotic diseases, including IPF,”, “continued recovery reaching their initial weight by day 10 (first therapeutic intervention). […] Neither oral or inhaled (IN) treatment or vehicles altered these characteristics.” for “is required for production and deposition of collagen.”"}, "[9]": {"details": "Oral Gavage (PO) 30 mg/kg BID, lung"}, "[10]": {"details": "OP 0.05 mg/kg QD, bleomycin rats"}, "[11]": {"details": "OP 0.25 mg/kg QD, bleomycin rats"}, "[12]": {"details": "OP 0.375 mg/kg QD, bleomycin rats"}, "[13]": {"details": "oral nintedanib HBr 30 mg/kg BID"}}, "note": "Read-outs that look alike come from different tables or passages of the source. Marks after values point to notes of the source that are not given here.", "data": [{"molecule": "COC(=O)c1ccc2c(c1)NC(=O)/C2=C(\\Nc1ccc(N(C)C(=O)CN2CCN(C)CC2)cc1)c1ccccc1", "note": "[Nintedanib HBr]", "values": [{"measurement": "IL-1β, Delta to Vehicle (%)", "setting": "interleukin-1β (IL-1β); Oral Gavage (PO) 30 mg/kg BID", "value": "−1.5", "unit": "%"}, {"measurement": "IL-1β", "setting": "interleukin-1β (IL-1β); [9]", "value": 1001.0, "unit": "pg/mL"}, {"measurement": "DVS mass uptake at 90% RH", "setting": "[1]; listed as HBr salt", "value": "ca. 4.5%"}, {"measurement": "Hygroscopicity", "setting": "[1]; listed as HBr", "value": "Hygroscopic"}, {"measurement": "Post-DVS XRPD pattern", "setting": "[1]; listed as HBr salt", "value": "remain unchanged"}, {"measurement": "Elastance, Delta to Vehicle (%)", "setting": "[2]; Oral Gavage (PO) 30 mg/kg BID", "value": "−122.2", "unit": "%"}, {"measurement": "Elastance, Sham Subtracted", "setting": "[2]; Oral Gavage (PO) 30 mg/kg BID", "value": "−0.2"}, {"measurement": "Parenchymal Collagen, Delta to Vehicle (%)", "setting": "parenchymal collagen; Oral Gavage (PO) 30 mg/kg BID", "value": 15.6, "unit": "%"}, {"measurement": "Parenchymal Collagen", "setting": "parenchymal collagen; Oral Gavage (PO) 30 mg/kg BID, Picrosirius Red", "value": 0.74}, {"measurement": "Body Weight Gain, Delta to Sham (%)", "setting": "[3]; OP 0.05 mg/kg QD", "value": "−18.4", "unit": "%"}, {"measurement": "Body Weight Gain, Delta to Sham (%)", "setting": "[3]; OP 0.25 mg/kg QD", "value": "−26.7", "unit": "%"}, {"measurement": "Body Weight Gain, Delta to Sham (%)", "setting": "[3]; OP 0.375 mg/kg QD", "value": "−4.8", "unit": "%"}, {"measurement": "αSMA (%)", "setting": "[4]; [9]", "value": 22.8, "unit": "%"}, {"measurement": "αSMA, Delta to Vehicle (%)", "setting": "[4]; Oral Gavage (PO) 30 mg/kg BID, p < 0.005", "value": "−47.7^b %"}, {"measurement": "Fibrosis Score (SD) (Ashcroft)", "setting": "[5]; [10]", "value": "2.7 (0.94)"}, {"measurement": "Fibrosis Score, Delta to Vehicle (%)", "setting": "[5]; [10]", "value": "−12.5", "unit": "%"}, {"measurement": "Fibrosis Score (SD) (Ashcroft)", "setting": "[5]; [11]", "value": "2.1 (0.97)"}, {"measurement": "Fibrosis Score, Delta to Vehicle (%)", "setting": "[5]; [11]", "value": 12.5, "unit": "%"}, {"measurement": "Fibrosis Score (SD) (Ashcroft)", "setting": "[5]; [12]", "value": "1.9 (0.48)"}, {"measurement": "Fibrosis Score, Delta to Vehicle (%)", "setting": "[5]; [12]", "value": 20.8, "unit": "%"}]}, {"molecule": "COC(=O)c1ccc2c(c1)NC(=O)/C2=C(\\Nc1ccc(N(C)C(=O)CN2CCN(C)CC2)cc1)c1ccccc1", "note": "[Nintedanib, methyl (3Z)-3-[[4-[methyl-[2-(4-methylpiperazin-1-yl)acetyl]amino]anilino]-phenylmethylidene]-2-oxo-1H-indole-6-carboxylate]", "values": [{"measurement": "lung IL-1β", "setting": "interleukin-1β (IL-1β); Inhaled (IN) nintedanib HBr dose groups", "value": "dose responsive reduction, with the high dose achieving significance"}, {"measurement": "lung IL-1β", "setting": "interleukin-1β (IL-1β); [13]", "value": "did not reduce IL-1β levels"}, {"measurement": "Post-DVS XRPD pattern", "setting": "[1]", "value": "remain Pattern 1"}, {"measurement": "DVS mass uptake at 90% RH", "setting": "[1]", "value": "ca. 1.7%"}, {"measurement": "Hygroscopicity", "setting": "[1]", "value": "slightly hygroscopic"}, {"measurement": "lung function (elastance)", "setting": "[2]; [13]", "value": "Oral was also significant in improving lung function"}, {"measurement": "parenchymal collagen (PSR)", "setting": "parenchymal collagen; inhalation (IN) or oral nintedanib HBr", "value": "not reversed by either inhalation or oral nintedanib treatment"}, {"measurement": "body weight gain", "setting": "[3]; High dose OP (0.375 mg/kg nintedanib HBr QD)", "value": "weight gain equivalent to sham animals"}, {"measurement": "body weight gain", "setting": "[3]; Oral (PO) 60 mg/kg nintedanib esylate BID", "value": "gained about half the weight of control animals"}, {"measurement": "lung αSMA levels", "setting": "[4]; oral and inhaled (IN) nintedanib HBr", "value": "both oral and inhaled routes have a substantial impact reducing αSMA lung levels, with the inhaled low and oral doses showing significance"}, {"measurement": "Predicted human half-life", "setting": "[6]; line of Mouse Oral 30.0 mg/kg", "value": 13.6, "unit": "h"}, {"measurement": "Predicted human half-life", "setting": "[6]; line of Rat Oral 60.0 mg/kg", "value": 13.6, "unit": "h"}, {"measurement": "Predicted human ELF half-life (alpha)", "setting": "[6]; from Mouse Inhaled […], 21-fold longer than animal lung half-life", "value": "84^c min"}, {"measurement": "Predicted human ELF half-life (alpha)", "setting": "[6]; from Mouse Inhaled […], ELF half-life 21-fold longer than animal lung half-life", "value": "84^c min"}, {"measurement": "Predicted human ELF half-life (alpha)", "setting": "[6]; from Rat Inhaled 0.05 mg/kg, 21-fold longer than animal lung half-life", "value": "294^c min"}, {"measurement": "Predicted human ELF half-life (alpha)", "setting": "[6]; from Rat Inhaled 0.25 mg/kg, 21-fold longer than animal lung half-life", "value": "294^c min"}, {"measurement": "Predicted human ELF half-life (alpha)", "setting": "[6]; from Rat Inhaled 0.375 mg/kg, 21-fold longer than animal lung half-life", "value": "294^c min"}, {"measurement": "less IT nintedanib to achieve the same lung Cmax as oral delivery", "setting": "[7]; 0.5 mg/kg IT compared to 100 mg/kg oral", "value": "about 200 fold"}, {"measurement": "Lung Cmax", "setting": "[7]; 2.5 mg/kg IT", "value": 57.5, "unit": "mcg/gram"}, {"measurement": "plasma AUC as fraction of the 100 mg/kg oral dose", "setting": "[7]; 2.5 mg/kg inhaled (IT)", "value": "about 1/9"}, {"measurement": "plasma AUC as fraction of the 100 mg/kg oral dose", "setting": "[7]; 10 mg/kg inhaled (IT)", "value": "⅓"}, {"measurement": "Lung Cmax", "setting": "[7]; 100 mg/kg oral", "value": 12.1, "unit": "mcg/gram"}, {"measurement": "lung fibrosis score (Ashcroft)", "setting": "[5]; Inhaled (OP) nintedanib HBr dose groups, bleomycin rats", "value": "dose responsive reduction in fibrosis score"}, {"measurement": "anti-fibrotic activity compared with oral 60 mg/kg BID", "setting": "[5]; inhaled high dose (0.375 mg/kg OP QD)", "value": "more anti-fibrotic activity as oral"}, {"measurement": "anti-fibrotic activity compared with oral 60 mg/kg BID", "setting": "[5]; inhaled low dose (0.05 mg/kg OP QD)", "value": "less anti-fibrotic activity than oral"}, {"measurement": "anti-fibrotic activity compared with oral 60 mg/kg BID", "setting": "[5]; inhaled mid-dose (0.25 mg/kg OP QD)", "value": "equivalent amount of anti-fibrotic activity as oral"}, {"measurement": "lung weights compared to control mice", "setting": "[8]", "value": "Neither oral nor inhaled (IN) nintedanib significantly affected lung weights"}]}]}
